# Reference: patent US8741868B2, “Pharmaceutical composition including an HIF-2 alpha inhibitor as an active ingredient for preventing or treating arthritis” (Gwangju Institute of Science and Technology, priority 2010, dated 2014)
# B1: IL-10: anti-inflammatory cytokine (R&D Systems, USA) (protein, UniProt P22301 19-178, looked up)
# Interleukin-10: SPGQGTQSENSCTHFPGNLPNMLRDLRDAFSRVKTFFQMKDQLDNLLLKESLLEDFKGYLGCQALSEMIQFYLEEVMPQAENQDPDIKAHVNSLGENLKTLRLRLRRCHRFLPCENKSKAVEQVKNAFNKLQEKGIYKAMSEFDIFINYIEAYMTMKIRN
# B2: IL-4: anti-inflammatory cytokine (R&D Systems, USA) (protein, UniProt P05112 25-153, looked up)
# Interleukin-4: HKCDITLQEIIKTLNSLTEQKTLCTELTVTDIFAASKNTTEKETFCRAATVLRQFYSHHEKDTRCLGATAQQFHRHKQLIRFLKRLDRNLWGLAGLNSCPVKEANQSTLENFLERLKTIMREKYSKCSS
# B3: IL-12: anti-inflammatory cytokine (R&D Systems, USA) (protein, UniProt P29459 23-219; P29460 23-328, looked up)
# Interleukin-12 subunit alpha: RNLPVATPDPGMFPCLHHSQNLLRAVSNMLQKARQTLEFYPCTSEEIDHEDITKDKTSTVEACLPLELTKNESCLNSRETSFITNGSCLASRKTSFMMALCLSSIYEDLKMYQVEFKTMNAKLLMDPKRQIFLDQNMLAVIDELMQALNFNSETVPQKSSLEEPDFYKTKIKLCILLHAFRIRAVTIDRVMSYLNAS
# Interleukin-12 subunit beta: IWELKKDVYVVELDWYPDAPGEMVVLTCDTPEEDGITWTLDQSSEVLGSGKTLTIQVKEFGDAGQYTCHKGGEVLSHSLLLLHKKEDGIWSTDILKDQKEPKNKTFLRCEAKNYSGRFTCWWLTTISTDLTFSVKSSRGSSDPQGVTCGAATLSAERVRGDNKEYEYSVECQEDSACPAAEESLPIEVMVDAVHKLKYENYTSSFFIRDIIKPDPPKNLQLKPLKNSRQVEVSWEYPDTWSTPHSYFSLTFCVQVQGKSKREKKDRVFTDKTSATVICRKNASISVRAQDRYYSSSWSEWASVPCS
# Tests used:
# [1] = tested on: cartilage degeneration-inducing factors MMP (1, 3, 9, 12, 13), ADAMTS4, PTGS2, NOS2; test: Expression of cartilage degeneration-inducing factors in chondrocytes after HIF-2α siRNA (RT-PCR, western blot, qRT-PCR); format: cell-based, mouse; details: for expression of the cartilage degeneration-inducing factors MMP (1, 3, 9, 12, 13), ADAMTS4, PTGS2, NOS2: siRNA 25, 50, 100 nM for 7 hours, then IL-1β medium 1.5 days, vs C-siRNA 100 nM
# Protocol: Also, the expression of the cartilage degeneration-inducing factors was investigated after artificially inhibiting expression of HIF-2α using an siRNA specific for HIF-2α. More specifically, mouse knee joint chondrocytes were kept in a culture medium for 72 hours. After infecting with control (C-siRNA, 100 nM) or HIF-2α siRNA (25, 50, 100 nM) for 7 hours, the cells were cultured in a medium containing IL-1B for 1.5 days. The cells were recovered and cartilage degeneration-inducing factors were identified by RT-PCR and western blot. GAPDH and lamin B were used as loading control. Also, mRNA (FIG. 3a) and protein (FIG. 3b) levels of HIF-2α, MMP, ADAMTS, PTGS2 and NOS2 were measured by RT-PCR and western blot and their expression level was quantitated by qRT-PCR (FIGS. 3c and 3d). GAPDH and lamin B were used as loading control. Primers used in PCR are described in Table 1. As a result, it was confirmed that the expression of the cartilage degeneration-inducing factors MMP (1, 3, 9, 12, 13), ADAMTS4, PTGs2, NOS2, etc. is decreased as the expression of HIF-2α is inhibited.
# (§1) Also, it was confirmed by qRT-PCR that the expression level of these transcripts is increased by Ad-HIF-2α and decreased by siRNA (FIG. 4a). The experimental procedure was the same as with MMP and ADAMT as described above. NOS2 and PTGS2 regulate cartilage degeneration by inducing production of nitric oxide (NO) and prostaglandin E2 (PGE2), respectively. The level of these metabolites was increased by Ad-HIF-2α and decreased by siRNA, as the expression level of PTGS2 and NOS2 transcripts (FIG. 4b).
# [2] = tested on: nitric oxide (NO) and prostaglandin E2 (PGE2); test: Production of nitric oxide (NO) and prostaglandin E2 (PGE2) in articular chondrocytes; format: cell-based; details: mouse knee joint chondrocytes
# From the text: as §1
# MAP kinase = MAP kinase phosphorylation in cytokine-treated chondrocytes; format: cell-based; details: cytokine-treated mouse knee articular chondrocytes, HIF-2α-siRNA
# From the text: According to a preferred embodiment, the siRNA of the present invention has nucleotide sequence included the nucleotide sequence as set forth in SEQ ID NO:1.
# HIF-2α = test: Expression of HIF-2α in mouse knee joint chondrocytes (RT-PCR, qRT-PCR, western blot); format: cell-based; details: for expression of HIF-2α transcripts and proteins: signal pathway inhibitor in chondrocytes; for expression of HIF-2α: mouse knee joint chondrocytes treated with the cytokine
# Protocol: In order to induce pathological condition of cartilage degeneration in knee joint chondrocytes of mouse (Charles River, Japan), the cells were treated with interleukin 1β (IL-1β, Calbiochem, USA), IL-17 (R&D Systems, USA), TNF-α (R&D Systems, USA) or IL-21 (R&D Systems, USA), which are known as proinflammatory cytokines. The expression level of HIF-2α was investigated by RT-PCR, qRT-PCR and western blot. The mouse knee joint chondrocytes were isolated from the knee joint of 8-day-old ICR mouse (Charles River, Japan) and cultured in DMEM (Gibco, USA) containing 10% (v/v) fetal bovine serum (Gibco, USA), 50 μg/mL streptomycin (Sigma-Aldrich, USA) and 50 unit/mL penicillin (Sigma-Aldrich, USA). As a result, it was confirmed that whereas the expression of HIF-2α is increased by the proinflammatory cytokines, it is not affected by the anti-inflammatory cytokines IL-4 (R&D Systems, USA), IL-10 (R&D Systems, USA) and […] (R&D Systems, USA) (FIGS. 2a and 2b). IL-1β activates various signal transduction pathways in chondrocytes. Activation of NF-κβ and degradation of IκB protein were confirmed by western blot, and phosphorylation of extracellular signal-regulated kinase (ERK), c-Jun N-terminal kinase (JNK) and p38 MAP kinase from among mitogen-activated protein (MAP) kinase subtypes was confirmed by western blot (FIG. 2c). […] Accordingly, it was confirmed through RT-PCR and western blot (FIG. 2d) and quantification of HIF-2α transcripts by real-time RT-PCR (qRT-PCR) that NFkB and JNK regulate the expression of HIF-2α (FIG. 2e). It was confirmed through immunohistochemical staining that IκB and phosphorylated JNK (pJNK) activating NF-κβ are activated in larger amounts in human degenerative articular cartilage tissue (OA; osteoarthritis) as compared to normal cartilage (Normal).
molecule,measurement,setting,value
"HIF-2α siRNA: siRNA specific for HIF-2α; mouse sense 5′-AGUUGUUGUAGACUUUCACCUGGC-3′, antisense 5′-GGCCAGGUGAAAGUCUACAACAAC-3′ (SEQ ID NO 4, 5) (listed as RNA, chemistry not given here)",expression level of PTGS2 and NOS2 transcripts (qRT-PCR),"[1]; mouse knee joint chondrocytes, siRNA",decreased
same,"expression of the cartilage degeneration-inducing factors MMP (1, 3, 9, 12, 13), ADAMTS4, PTGS2, NOS2",[1],decreased
same,"expression of the cartilage degeneration-inducing factors MMP (1, 3, 9, 12, 13), ADAMTS4, PTGS2, NOS2",[1]; listed as HIF-2α-siRNA,markedly decreased
same,level of metabolites nitric oxide (NO) and prostaglandin E2 (PGE2),[2],decreased
same,MAP kinase phosphorylation,MAP kinase,significantly reduced
"COc1cccc(-c2cc(=O)c3ccccc3o2)c1N [PD98059, reference compound]",expression of HIF-2α transcripts and proteins,HIF-2α,inhibition effect was slightly weak
TNF-α,expression of HIF-2α,HIF-2α,increased
"CC(C)(C)c1ccc(S(=O)(=O)/C=C/C#N)cc1 [BAY 11-7085, reference compound]",expression of HIF-2α transcripts and proteins,HIF-2α,decreased remarkably
"IL-21: proinflammatory cytokine (R&D Systems, USA)",expression of HIF-2α,HIF-2α,increased
"IL-17: proinflammatory cytokine (R&D Systems, USA)",expression of HIF-2α,HIF-2α,increased
interleukin 1β [IL-1β],expression of HIF-2α,HIF-2α,increased
"C[S+]([O-])c1ccc(-c2nc(-c3ccncc3)c(-c3ccc(F)cc3)[nH]2)cc1 (stereo not shown) [SB203580, reference compound]",expression of HIF-2α transcripts and proteins,HIF-2α,no effect
IL-18: proinflammatory cytokine named in the legend of FIG. 2,expression of HIF-2α,HIF-2α,increased
B1,expression of HIF-2α,HIF-2α,not affected
B2,expression of HIF-2α,HIF-2α,not affected
B3,expression of HIF-2α,HIF-2α,not affected
